The results in this text go back to patent US12552804B2, “Tricyclic heterocycles as FGFR inhibitors” (Incyte Corporation, priority 2019, dated 2026).

The target of this experiment is wild-type un-phosphorylated FGFR3 protein (Homo sapiens, UniProt P22607). Briefly: FGFR Enzymatic Assay (FRET detection of peptide phosphorylation). Type of experiment: biochemical. Conditions: pre-incubated for 4 hours, read-out: FGFR3_Ki. On the procedure: The inhibitor potency of the exemplified compounds was determined in an enzyme discontinuous assay that measures peptide phosphorylation using FRET measurements to detect product formation. Inhibitors were serially diluted in DMSO and a volume of 0.2 μL was transferred to the wells of a 384-well plate. A 5 μL/well volume of enzyme isoforms of FGFR (−1, −2, −3 wild-type and mutant isoforms, −4) including phosphorylated and un-phosphorylated proteins diluted in assay buffer (50 mM HEPES, 10 mM MgCl2, 1 mM EGTA, 0.01% Tween-20, 5 mM DTT, pH 7.5) was added to the plate and pre-incubated with inhibitor for 5 to 15 minutes at ambient temperature. Appropriate controls (enzyme blank and enzyme with no inhibitor) were included on the plate. […] The ATP Km values were pre-determined in a separate series of experiments. The reaction plate was incubated at 25° C. for 1 hr and the reactions were ended with the addition of 5 μL/well of quench solution (50 mM Tris, 150 mM NaCl, 0.5 mg/mL BSA, pH 7.8; 45 mM EDTA, 600 nM staurosporin, with Perkin Elmer Lance Reagents at 3.75 nM Eu-antibody PY20 and 180 nM APC-Streptavidin). The plate was allowed to equilibrate for ˜10 minutes at ambient temperature before scanning on a PheraStar plate reader (BMG Labtech) instrument.
Either GraphPad prism or XLfit was used to analyze the data. The IC50 values were derived by fitting the data to a four parameter logistic equation producing a sigmoidal dose-response curve with a variable Hill coefficient. Prism equation: Y=Bottom+(Top−Bottom)/(1+10^((LogIC50−X)*Hill slope)); XLfit equation: Y=(A+((B−A)/(1+((X/C)^D)))) where X is the logarithm of inhibitor concentration and Y is the response.
The data in Table 1 was measured in wild-type un-phosphorylated FGFR3 protein.

wild-type un-phosphorylated FGFR3 protein, sequence (P22607 23-806): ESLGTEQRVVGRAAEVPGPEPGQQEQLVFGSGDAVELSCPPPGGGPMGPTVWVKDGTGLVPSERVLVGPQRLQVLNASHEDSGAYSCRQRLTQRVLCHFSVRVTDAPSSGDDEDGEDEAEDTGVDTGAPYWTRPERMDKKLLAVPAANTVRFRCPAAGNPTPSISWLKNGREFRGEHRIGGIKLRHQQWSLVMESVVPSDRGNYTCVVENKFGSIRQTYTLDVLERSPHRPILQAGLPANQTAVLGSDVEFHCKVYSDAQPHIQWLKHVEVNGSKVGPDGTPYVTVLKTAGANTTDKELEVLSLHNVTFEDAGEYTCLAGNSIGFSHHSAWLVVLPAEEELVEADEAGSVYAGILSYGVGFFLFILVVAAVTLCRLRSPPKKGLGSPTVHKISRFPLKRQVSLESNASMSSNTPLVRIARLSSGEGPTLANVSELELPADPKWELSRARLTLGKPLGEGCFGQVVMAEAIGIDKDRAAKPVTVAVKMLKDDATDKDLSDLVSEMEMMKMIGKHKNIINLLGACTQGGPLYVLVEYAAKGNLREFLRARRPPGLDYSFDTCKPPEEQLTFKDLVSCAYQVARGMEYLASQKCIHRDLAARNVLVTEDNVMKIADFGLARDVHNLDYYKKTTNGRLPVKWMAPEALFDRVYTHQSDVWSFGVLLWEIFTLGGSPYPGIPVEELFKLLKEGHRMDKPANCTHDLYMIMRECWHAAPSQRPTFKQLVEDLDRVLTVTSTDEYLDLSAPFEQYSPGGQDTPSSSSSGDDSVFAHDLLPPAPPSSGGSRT

Regarding `Cc1c(-c2ccccc2Cl)nc2c3cc(-c4cnn(C)c4)cnc3ccn12` [Example 1, 2-(2-Chlorophenyl)-3-methyl-9-(1-methyl-1H-pyrazol-4-yl)imidazo[2,1-f][1,6]naphthyridine], the Ki is 10 to 100 nM.
For `Cn1cc(-c2cnc3ccn4c(C5=CCCC5)c(-c5ccccc5Cl)nc4c3c2)cn1` [Example 2, 2-(2-Chlorophenyl)-3-(cyclopent-1-en-1-yl)-9-(1-methyl-1H-pyrazol-4-yl)imidazo[2,1-f][1,6]naphthyridine] the value was 100 to 400 nM.
As for `C/C=C/c1c(-c2ccccc2Cl)nc2c3cc(-c4cnn(C)c4)cnc3ccn12` [Example 3, (E)-2-(2-Chlorophenyl)-9-(1-methyl-1H-pyrazol-4-yl)-3-(prop-1-en-1-yl)imidazo[2,1-f][1,6]naphthyridine], the figure is 10 to 100 nM; as for `COc1cc(OC)cc(-c2c(-c3ccccc3Cl)nc3c4cc(-c5cnn(C)c5)cnc4ccn23)c1` [Example 4, 2-(2-Chlorophenyl)-3-(3,5-dimethoxyphenyl)-9-(1-methyl-1H-pyrazol-4-yl)imidazo[2,1-f][1,6]naphthyridine], less than 10 nM; as for `Cn1cc(-c2cnc3ccn4c(-c5cnn(C)c5)c(-c5ccccc5Cl)nc4c3c2)cn1` [Example 5, 2-(2-Chlorophenyl)-3,9-bis(1-methyl-1H-pyrazol-4-yl)imidazo[2,1-f][1,6]naphthyridine], 100 to 400 nM.
As for `Cn1cc(-c2cnc3ccn4c(-c5ccco5)c(-c5ccccc5Cl)nc4c3c2)cn1` [Example 6, 2-(2-Chlorophenyl)-3-(furan-2-yl)-9-(1-methyl-1H-pyrazol-4-yl)imidazo[2,1-f][1,6]naphthyridine], the figure is 10 to 100 nM; as for `Cn1cc(-c2cnc3ccn4c(C#N)c(-c5ccccc5Cl)nc4c3c2)cn1` [Example 7, 2-(2-Chlorophenyl)-9-(1-methyl-1H-pyrazol-4-yl)imidazo[2,1-f][1,6]naphthyridine-3-carbonitrile], 100 to 400 nM.
Consider `Cn1cc(-c2cnc3ccn4c(C5CC5)c(-c5ccccc5Cl)nc4c3c2)cn1` [Example 8, 2-(2-Chlorophenyl)-3-cyclopropyl-9-(1-methyl-1H-pyrazol-4-yl)imidazo[2,1-f][1,6]naphthyridine], for which the Ki is less than 10 nM.
For `CCc1c(-c2ccccc2Cl)nc2c3cc(-c4cnn(C)c4)cnc3ccn12` [Example 9, 2-(2-Chlorophenyl)-3-ethyl-9-(1-methyl-1H-pyrazol-4-yl)imidazo[2,1-f][1,6]naphthyridine] the value was 10 to 100 nM; for `Cn1cc(-c2cnc3ccn4c(Cl)c(-c5ccccc5Cl)nc4c3c2)cn1` [Example 10, 3-Chloro-2-(2-chlorophenyl)-9-(1-methyl-1H-pyrazol-4-yl)imidazo[2,1-f][1,6]naphthyridine], 10 to 100 nM; for `Cn1cc(-c2cnc3ccn4cc(-c5c(F)cccc5F)nc4c3c2)cn1` [Example 11, 2-(2,6-Difluorophenyl)-9-(1-methyl-1H-pyrazol-4-yl)imidazo[2,1-f][1,6]naphthyridine], 10 to 100 nM.
For `Cc1nn(C)cc1-c1cnc2ccn3cc(-c4c(F)cccc4Cl)nc3c2c1` [Example 12, 2-(2-Chloro-6-fluorophenyl)-9-(1,3-dimethyl-1H-pyrazol-4-yl)imidazo[2,1-f][1,6]naphthyridine] the value was 10 to 100 nM; for `Cn1cc(-c2cnc3ccn4c(C5CC5)c(-c5ccccc5Cl)nc4c3n2)cn1` [Example 13, 9-(2-Chlorophenyl)-8-cyclopropyl-2-(1-methyl-1H-pyrazol-4-yl)imidazo[1′,2′:1,2]pyrido[3,4-b]pyrazine], less than 10 nM.
For `Cn1cc(-c2cnc3ccn4cc(-c5c(F)cccc5Cl)nc4c3n2)cn1` [Example 14, 9-(2-Chloro-6-fluorophenyl)-2-(1-methyl-1H-pyrazol-4-yl)imidazo[1′,2′:1,2]pyrido[3,4-b]pyrazine] the value was 10 to 100 nM.
